The record followed here is ChEMBL document CHEMBL1275548, “Interspecies recombination occurs frequently in quinolone resistance-determining regions of clinical isolates of Streptococcus pyogenes” (2008).

In this assay the test system is Streptococcus pyogenes. Briefly: Antibacterial activity against Streptococcus pyogenes clinical isolate by agar dilution method.

SMILES strings stand for the structures.

Take `O=C(O)c1cn(C2CC2)c2cc(N3CCNCC3)c(F)cc2c1=O` [CIPROFLOXACIN]: the minimal inhibitory concentration (MIC) was at least 2 µg/mL.
